According to PubChem BioAssay (NCI):
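96-well plates; 48 h exposure; 5 concentrations. Endpoints by linear interpolation between flanking doses. Not reached: highest tested concentration assigned. The concentration for 50% growth inhibition is given as GI50. TGI: total growth inhibition.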

What was measured:
Test in all cases: growth of human tumour cells (NCI), 48 h
786-0 renal = tested on: 786-0 renal
A498 renal = tested on: A498 renal
A549 NSCLC = tested on: A549 NSCLC
ACHN renal = tested on: ACHN renal
BT-549 breast = tested on: BT-549 breast
CAKI-1 renal = tested on: CAKI-1 renal
CCRF-CEM leukemia = tested on: CCRF-CEM leukemia
COLO 205 colon = tested on: COLO 205 colon
DU-145 prostate = tested on: DU-145 prostate
EKVX NSCLC = tested on: EKVX NSCLC
HCC-2998 colon = tested on: HCC-2998 colon
HCT-116 colon = tested on: HCT-116 colon
HCT-15 colon = tested on: HCT-15 colon
HL-60(TB) leukemia = tested on: HL-60(TB) leukemia
HOP-62 NSCLC = tested on: HOP-62 NSCLC
HOP-92 NSCLC = tested on: HOP-92 NSCLC
HS 578T breast = tested on: HS 578T breast
HT29 colon = tested on: HT29 colon
IGROV1 ovarian = tested on: IGROV1 ovarian
K-562 leukemia = tested on: K-562 leukemia
KM12 colon = tested on: KM12 colon
LOX IMVI melanoma = tested on: LOX IMVI melanoma
M14 melanoma = tested on: M14 melanoma
MALME-3M melanoma = tested on: MALME-3M melanoma
MCF7 breast = tested on: MCF7 breast
MDA-MB-231 breast = tested on: MDA-MB-231 breast
MDA-MB-435 = tested on: MDA-MB-435
MDA-MB-468 breast = tested on: MDA-MB-468 breast
MOLT-4 leukemia = tested on: MOLT-4 leukemia
NCI-H226 lung = tested on: NCI-H226 lung
NCI-H23 lung = tested on: NCI-H23 lung
NCI-H460 lung = tested on: NCI-H460 lung
NCI-H522 lung = tested on: NCI-H522 lung
NCI/ADR-RES ovarian = tested on: NCI/ADR-RES ovarian
OVCAR-3 ovarian = tested on: OVCAR-3 ovarian
OVCAR-4 ovarian = tested on: OVCAR-4 ovarian
OVCAR-5 ovarian = tested on: OVCAR-5 ovarian
OVCAR-8 ovarian = tested on: OVCAR-8 ovarian
PC-3 prostate = tested on: PC-3 prostate
RPMI-8226 leukemia = tested on: RPMI-8226 leukemia
RXF 393 renal = tested on: RXF 393 renal
SF-268 CNS = tested on: SF-268 CNS
SF-295 CNS = tested on: SF-295 CNS
SF-539 CNS = tested on: SF-539 CNS
SK-MEL-2 melanoma = tested on: SK-MEL-2 melanoma
SK-MEL-28 melanoma = tested on: SK-MEL-28 melanoma
SK-MEL-5 melanoma = tested on: SK-MEL-5 melanoma
SK-OV-3 ovarian = tested on: SK-OV-3 ovarian
SN12C renal = tested on: SN12C renal
SNB-19 CNS = tested on: SNB-19 CNS
SNB-75 CNS = tested on: SNB-75 CNS
SR leukemia = tested on: SR leukemia
SW-620 colon = tested on: SW-620 colon
T-47D breast = tested on: T-47D breast
TK-10 renal = tested on: TK-10 renal
U251 CNS = tested on: U251 CNS
UACC-62 melanoma = tested on: UACC-62 melanoma
UO-31 renal = tested on: UO-31 renal

## Cc1ccc(Nc2nnc(-c3c[nH]c4ccccc34)o2)c(C)c1
786-0 renal
  GI50: 768 nM
  TGI: 11300 nM
A498 renal
  GI50: 18200 nM
  TGI: 56600 nM
A549 NSCLC
  GI50: 868 nM
  TGI: > 100000 nM
ACHN renal
  GI50: 564 nM
  TGI: 30600 nM
BT-549 breast
  GI50: 435 nM
  TGI: 19900 nM
CAKI-1 renal
  GI50: 483 nM
  TGI: 38900 nM
CCRF-CEM leukemia
  GI50: 311 nM
  TGI: > 35100 nM
COLO 205 colon
  GI50: 447 nM
  TGI: 2950 nM
DU-145 prostate
  GI50: 664 nM
  TGI: > 45300 nM
EKVX NSCLC
  GI50: 455 nM
  TGI: > 73100 nM
HCC-2998 colon
  GI50: 625 nM
  TGI: 4560 nM
HCT-116 colon
  GI50: 645 nM
  TGI: 29200 nM
HCT-15 colon
  GI50: 170 nM
  TGI: 16700 nM
HL-60(TB) leukemia
  GI50: 274 nM
  TGI: 17800 nM
HOP-62 NSCLC
  GI50: 475 nM
  TGI: 24300 nM
HOP-92 NSCLC
  GI50: 8530 nM
  TGI: 43600 nM
HS 578T breast
  GI50: 333 nM
  TGI: 9170 nM
HT29 colon
  GI50: 326 nM
  TGI: 2780 nM
IGROV1 ovarian
  GI50: 569 nM
  TGI: 20400 nM
K-562 leukemia
  GI50: 80.1 nM
  TGI: > 100000 nM
KM12 colon
  GI50: 435 nM
  TGI: 14500 nM
LOX IMVI melanoma
  GI50: 478 nM
  TGI: 7430 nM
M14 melanoma
  GI50: 324 nM
  TGI: 16000 nM
MALME-3M melanoma
  GI50: 323 nM
  TGI: 18800 nM
MCF7 breast
  GI50: 283 nM
  TGI: 13200 nM
MDA-MB-231 breast
  GI50: 620 nM
  TGI: 15900 nM
MDA-MB-435
  GI50: 46 nM
  TGI: 250 nM
MDA-MB-468 breast
  GI50: 300 nM
  TGI: 1030 nM
MOLT-4 leukemia
  GI50: 478 nM
  TGI: 46200 nM
NCI-H226 lung
  GI50: 1450 nM
  TGI: > 100000 nM
NCI-H23 lung
  GI50: 445 nM
  TGI: 12700 nM
NCI-H460 lung
  GI50: 443 nM
  TGI: 13600 nM
NCI-H522 lung
  GI50: 163 nM
  TGI: 1210 nM
NCI/ADR-RES ovarian
  GI50: 109 nM
  TGI: 484 nM
OVCAR-3 ovarian
  GI50: 307 nM
  TGI: 3530 nM
OVCAR-4 ovarian
  GI50: 14900 nM
  TGI: > 100000 nM
OVCAR-5 ovarian
  GI50: 756 nM
  TGI: 24200 nM
OVCAR-8 ovarian
  GI50: 463 nM
  TGI: 9100 nM
PC-3 prostate
  GI50: 583 nM
  TGI: > 100000 nM
RPMI-8226 leukemia
  GI50: 424 nM
  TGI: > 39100 nM
RXF 393 renal
  GI50: 375 nM
  TGI: 7440 nM
SF-268 CNS
  GI50: 714 nM
  TGI: 30900 nM
SF-295 CNS
  GI50: 236 nM
  TGI: 3240 nM
SF-539 CNS
  GI50: 286 nM
  TGI: 932 nM
SK-MEL-2 melanoma
  GI50: 302 nM
  TGI: 13300 nM
SK-MEL-28 melanoma
  GI50: 639 nM
  TGI: 31800 nM
SK-MEL-5 melanoma
  GI50: 353 nM
  TGI: 15000 nM
SK-OV-3 ovarian
  GI50: 502 nM
  TGI: 23800 nM
SN12C renal
  GI50: 522 nM
  TGI: 16500 nM
SNB-19 CNS
  GI50: 512 nM
  TGI: 43700 nM
SNB-75 CNS
  GI50: 255 nM
  TGI: 968 nM
SR leukemia
  GI50: 141 nM
  TGI: > 100000 nM
SW-620 colon
  GI50: 325 nM
  TGI: > 100000 nM
T-47D breast
  GI50: 325 nM
  TGI: > 100000 nM
TK-10 renal
  GI50: 4030 nM
  TGI: > 100000 nM
U251 CNS
  GI50: 394 nM
  TGI: 15400 nM
UACC-62 melanoma
  GI50: 277 nM
  TGI: 12200 nM
UO-31 renal
  GI50: 530 nM
  TGI: 57000 nM
